According to PubChem BioAssay AID720632 (Broad Institute, 2013):
Active and inactive are the calls of the source. How the calls were made is not given here.

Target: Caspase-6 (Homo sapiens) (UniProt P55212)
Experiment: inhibition of CASP6 peptide cleavage – biochemical, VEID-R110 fluorescence, cherry-pick, dose response (AID 720632)
Details: caspase-6, VEID-R110 fluorogenic substrate

Caspase-6 (Homo sapiens), sequence (P55212 24-179 limits assumed): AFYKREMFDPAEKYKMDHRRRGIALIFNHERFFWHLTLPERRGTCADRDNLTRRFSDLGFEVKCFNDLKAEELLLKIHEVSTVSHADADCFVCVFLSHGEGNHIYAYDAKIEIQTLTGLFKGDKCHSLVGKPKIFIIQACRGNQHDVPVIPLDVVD
Caspase-6 (Homo sapiens), sequence (P55212 194-293 limits assumed): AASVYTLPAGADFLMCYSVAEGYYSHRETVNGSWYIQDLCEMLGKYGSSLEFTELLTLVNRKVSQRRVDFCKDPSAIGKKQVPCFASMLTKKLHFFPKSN

Row | Compound | activity change, negative = inhibition (at 26 µM (top of the series)) | activity change, negative = inhibition (at 23.5 µM (top of the series))
1 | O=C(Nc1ccc(F)cc1)N1CCN(C(=O)C2CCCO2)CC1 (stereo not given) | inactive | 
2 | COCC(=O)Nc1ccc2c(c1)OC[C@H](C)N(CC1CC1)C[C@H](C)[C@H](OC)CN(C)C2=O | inactive | 
3 | C=C1[C@H](C)CN[C@H]1CCO | inactive | 
4 | O=C1CC(NS(=O)(=O)c2cc(F)ccc2F)CN1c1cccc(F)c1 (stereo not given) | inactive | 
5 | COC(=O)CN1C(=O)COc2ccc(S(=O)(=O)N3CCCCC3)cc21 | inactive | 
6 | Cc1ccc(-c2nc3ccc(Cl)cn3c2Cc2ccsc2)cc1 | inactive | 
7 | O=C(O)c1ccc(NS(=O)(=O)/C=C/c2ccccc2)cc1O | inactive | 
8 | O=C(OCC(=O)N1CCN(c2ccccc2)CC1)c1ccc([N+](=O)[O-])s1 | inactive | 
9 | O=C(N/N=C/c1coc2ccccc2c1=O)c1cc(Br)ccc1O | inactive | 
10 | CCOc1cc2c(cc1OC)C(c1cccc([N+](=O)[O-])c1)NCC2 (stereo not given) | inactive | 
11 | CCCC(=O)Nc1ccc2c(c1)OC[C@@H](C)N(Cc1ccc(F)cc1)C[C@H](C)[C@@H](OC)CN(C)C2=O | inactive | 
12 | O=C(Cn1cncn1)NCCCc1ccccc1 | inactive | 
13 | CN1CC2([N+](=O)[O-])CC=C(OCCO)C([N+](=O)[O-])(C1)C2 (stereo not given) | inactive | 
14 | CCC(=O)Nc1ccc2c(c1)OC[C@@H](C)N(C(=O)CC)C[C@@H](C)[C@@H](OC)CN(C)C2=O | inactive | 
15 | O=C(NCC(=O)N1CC=C(c2ccccc2)CC1)c1ccccc1Br | inactive | 
16 | Cc1ccc(-c2[nH]c3cc(C(=O)NCCCn4ccnc4)ccc3c(=O)c2O)cc1 | inactive | 
17 | O=C(Nc1ccc2c(c1)[C@H]1C[C@H](CC(=O)N3CCCCC3)O[C@@H](CO)[C@H]1O2)Nc1ccccc1F | inactive | 
18 | O=[N+]([O-])c1ccc2nc(-c3ccccc3[N+](=O)[O-])[nH]c2c1 | inactive | 
19 | COc1cc(/C=C2\SC(=O)NC2=O)ccc1Oc1ccc([N+](=O)[O-])cc1[N+](=O)[O-] | inactive | 
20 | COc1cc(N)c(Cl)cc1C(=O)NC1CCN(Cc2ccccc2)CC1 | inactive | 
21 | Cc1ccc(S(=O)(=O)N2CCC(C(=O)NCCCN3CCOCC3)CC2)cc1C | inactive | 
22 | CC(CNC(=O)c1ccc(OC2CCN(Cc3ccccn3)CC2)cc1)c1ccccc1 (stereo not given) | inactive | 

Row | Compound | activity change, negative = inhibition (at 26 µM (top of the series)) | activity change, negative = inhibition (at 23.5 µM (top of the series))
23 | CO[C@@H]1CN(C)C(=O)c2ccc(NC(=O)C3CC3)cc2OC[C@H](C)N(Cc2ccccc2)C[C@H]1C | inactive | 
24 | COC(=O)c1ccc(CNC(=O)COC(=O)c2ccccc2-c2ccccc2)cc1 | inactive | 
25 | Cc1cc(N2CCCC2)ccc1NC(=O)CN1C(=O)NC2(CCCCC2)C1=O | inactive | 
26 | Cc1ccc(NC(=O)c2sc(C)nc2C)c(C)c1 | inactive | 
27 | CO[C@@H]1CN(C)C(=O)c2ccc(NC(=O)c3ccccc3)cc2OC[C@@H](C)N(C(=O)C2CC2)C[C@@H]1C | inactive | 
28 | CCN(CC)c1ccc2c(cc1=O)[C@@H](NC)CCc1cc(OC)c(OC)c(OC)c1-2 | inactive | 
29 | N#CC1C(=O)Nc2cccnc21 (stereo not given) | inactive | 
30 | CN1CC(=O)N2Cc3[nH]c4ccccc4c3C[C@H]2C1=O | inactive | 
31 | CCOc1ccc(NC(=O)CN(C)C(=O)c2cc(C)nc3ccccc23)cc1OCC | inactive | 
32 | CC(C)(O)c1cn([C@@H]2C[C@@H]3O[C@@H](CO)CC[C@@H]3O[C@@H]2CCc2ccc(-c3ccncc3)cc2)nn1 | inactive | 
33 | CO[C@@H]1CN(C)C(=O)c2ccc(NC(=O)c3ccccc3)cc2OC[C@H](C)N(C(=O)C2CC2)C[C@H]1C | inactive | 
34 | Cc1cnc(NC(=O)c2ccc3c(c2)OCCO3)s1 | inactive | 
35 | Cc1ccccc1CN(C)C(=O)COC(=O)CSc1ccc([N+](=O)[O-])cc1 | inactive | 
36 | CC1(C)COC(/C=C/c2cccc([N+](=O)[O-])c2)=N1 | inactive | 
37 | CS(=O)(=O)c1ccc(Nc2nc(C(N)COCc3ccccc3)cs2)cc1 (stereo not given) | inactive | 
38 | COC(=O)c1ccc(C(=O)OC)c(NC(=O)CN(c2ccc3c(c2)OCO3)S(C)(=O)=O)c1 | inactive | 
39 | Cc1ccccc1NC(=O)C1CCCN(S(=O)(=O)c2cnc[nH]2)C1 (stereo not given) | inactive | 
40 | CCS(=O)(=O)c1nc(S(=O)(=O)c2ccc(Cl)cc2)c(N2CCOCC2)s1 | inactive | 
41 | CC1(Oc2cnc(Cl)c3ccccc23)CCN(Cc2ccc(OC(F)(F)F)cc2)C1 (stereo not given) | inactive | 
42 | Oc1ccc(/C=N/n2c(-c3ccccc3)n[nH]c2=S)cc1Br | inactive | 
43 | O=C(Nc1cccc(-c2ccccc2)c1)N1CCN(C(=O)Nc2cccc(-c3ccccc3)c2)CC1 | inactive | 
44 | Cc1ccc(NC(=O)Nc2nnc(-c3ccccc3)o2)cc1 | inactive | 

Row | Compound | activity change, negative = inhibition (at 26 µM (top of the series)) | activity change, negative = inhibition (at 23.5 µM (top of the series))
45 | COc1cc(OC)c(-c2nn3c(C4CCCCC4)nnc3s2)cc1OC | inactive | 
46 | Nc1ccc(Sc2ccccc2Cl)nc1 | inactive | 
47 | COc1ccc(C(=O)Nc2cc(C(=O)O)cc(C(=O)O)c2)cc1Cl | inactive | 
48 | Cn1c(NN=O)nc2ccccc21 | inactive | 
49 | CCCC(=O)Nc1ccc2c(c1)OC[C@H](C)N(CCC)C[C@H](C)[C@@H](OC)CN(C)C2=O | inactive | 
50 | CCCN1C[C@@H](C)[C@H](OC)CN(C)C(=O)c2ccc(NC(=O)CC)cc2OC[C@@H]1C | inactive | 
51 | Cn1c(CSCCOc2ccccc2)n[nH]c1=S | inactive | 
52 | O=C(NC1CC1)c1c(O)c2ccccc2[nH]c1=O | inactive | 
53 | COc1cccc(N2C(=O)NC(=O)/C(=C/c3ccc([N+](=O)[O-])s3)C2=O)c1 | inactive | 
54 | CN1CCN(NC(=O)NC2CCCCC2)CC1 | inactive | 
55 | Cc1ccc2c(c1)c1c(n2CC(O)CN2CCC(C)CC2)CCCC1 (stereo not given) | inactive | 
56 | CCC(=O)Nc1ccc2c(c1)OC[C@@H](C)N(C(=O)CC)C[C@@H](C)[C@H](OC)CN(C)C2=O |  | inactive
57 | CCC(C)(C)NC(=O)CN(C(=O)CNS(=O)(=O)c1ccc(F)cc1)c1ccc2c(c1)OCCO2 | inactive | 
58 | CC(=O)N1CCc2c(sc(NC(=O)C3CCCCC3)c2C(N)=O)C1 | inactive | 
59 | O=C(O)C1C=Cc2ccccc2N1C(=O)c1ccccc1 (stereo not given) (tested in a mixture with another compound) | inactive | 
60 | CCCC(=O)Nc1ccc2c(c1)OC[C@H](C)NC[C@H](C)[C@H](OC)CN(C)C2=O | inactive | 
61 | CCC(=O)Nc1ccc2c(c1)OC[C@@H](C)NC[C@@H](C)[C@@H](OC)CN(C)C2=O | inactive | 
62 | CCC(=O)Nc1ccc2c(c1)OC[C@@H](C)N(C(=O)CC)C[C@H](C)[C@@H](OC)CN(C)C2=O | inactive | 
63 | CCC1(C)Cc2c(C#N)c(N)n(-c3ccccc3)c(=S)c2CO1 (stereo not given) | inactive | 
64 | Clc1cccc(-c2nn3c(Cn4cnc5ccccc54)nnc3s2)c1 | inactive | 
65 | O=C(COC(=O)c1ccc([N+](=O)[O-])s1)NC(=O)NCc1ccccc1 | inactive | 
66 | COc1cc(OC)c(NS(=O)(=O)c2c(C)[nH]c(=O)[nH]c2=O)cc1Cl | inactive | 

Row | Compound | activity change, negative = inhibition (at 26 µM (top of the series)) | activity change, negative = inhibition (at 23.5 µM (top of the series))
67 | C[C@H](CO)N1C[C@H](C)[C@@H](CN(C)C(=O)c2ccncc2)OCc2cnnn2CCCC1=O | inactive | 
68 | Cc1ccc(NC(=O)c2ocnc2C)cc1Cl | inactive | 
69 | O=C(Nc1ccccc1)c1ccccc1OCc1cccc([N+](=O)[O-])c1 | inactive | 
70 | CC1CCCC(C)N1C(=O)C1CCCCC1 (stereo not given) | inactive | 
71 | COc1cc2sc(C)nc2c2ccccc12 | inactive | 
72 | O=C(Nc1ccc(F)cc1)c1ccccc1NC(=O)C1CC=CCC1C(=O)O (stereo not given) | inactive | 
73 | COc1cccc(NC(=O)Cn2c(=O)n(C)c(=O)c3sc4c(c32)COC(C)(C)C4)c1 | inactive | 
74 | O=C(CN1C(=O)NC2(CCc3ccccc32)C1=O)Nc1c(Cl)cccc1Cl (stereo not given) | inactive | 
75 | C/C=C/c1ccc([C@@H]2[C@H](CO)N(C(=O)C3CCCC3)C23CN(S(C)(=O)=O)C3)cc1 | inactive | 
76 | C[C@H]1CN([C@@H](C)CO)C(=O)CCCn2cc(nn2)CO[C@@H]1CN(C)C(=O)CCC(F)(F)F | inactive | 
77 | COc1ccccc1C(=O)Nc1ccc2c(c1)OC[C@H](C)N(CC1CC1)C[C@@H](C)[C@@H](OC)CN(C)C2=O | inactive | 
78 | O=C(N/N=C/c1oc(O)c2ccccc12)c1ccccc1O | inactive | 
79 | COc1ccc(OC)c(NC(=O)Nc2ccc(O)c3ccccc23)c1 | inactive | 
80 | COc1ccccc1S(=O)(=O)N[C@@H]1C=C[C@@H](CC(=O)N2CCOCC2)O[C@H]1CO | inactive | 
81 | COCC(=O)Nc1ccc2c(c1)OC[C@@H](C)N(CC1CC1)C[C@H](C)[C@@H](OC)CN(C)C2=O | inactive | 
82 | COc1cccc(NS(=O)(=O)c2ccc3c(c2)NC(=O)CC(=O)N3)c1 | inactive | 
83 | Cc1onc(-c2ccc(Cl)cc2Cl)c1-c1csc(N/N=C/c2ccccc2Cl)n1 | inactive | 
84 | COc1ccc(C(=O)Nc2ccc3ccccc3c2)c(OC)c1 | inactive | 
85 | CCCN1C[C@H](C)[C@@H](OC)CN(C)C(=O)c2ccc(NC(=O)CC)cc2OC[C@H]1C | inactive | 
